According to PMC9595134, “Novel pituitary actions of GnRH in teleost: The link between reproduction and feeding regulation” (Frontiers in Endocrinology, 2022):

Assays:
[1] = system: grass carp pituitary cells; test: Signal transduction: pathway inhibitors on GnRH-induced anorectic gene mRNA; type: cell-based, grass carp (Ctenopharyngodon idellus); details: U73122 10 μM, GF109203X 20 μM, 2-APB 100 μM, MDL12330A 20 μM, H89 20 μM, nifedipine 10 μM, calmidazolium 1 μM, KN62 5 μM; for blockade of GnRH2-induced POMCb, CART2, UTS1, NMBa, NMBb, and LEPR mRNA expression: cotreated with GnRH2, 24 h; for blockade of GnRH3-induced POMCb, CART2, UTS1, NMBa, NMBb, and LEPR mRNA expression: cotreated with GnRH3, 24 h
Description: (§1) The preparation of grass carp pituitary cells was performed as mentioned above. After drug treatment, the total RNA of these cells was isolated by TRIzol reagent and reverse transcribed into cDNA with Hifair™ III 1st Strand cDNA Synthesis Kit. The transcript levels of several anorectic peptides (POMCb, CART2, UTS1, NMBa, NMBb, and Lepr) and reproductive genes (GtHα, LHβ, FSHβ, INHBa, SgII, DRD2) were detected by using an ABI 7500 quantitative real-time PCR (qRT-PCR) system (Biosystems, USA) (information of primers for target genes is listed in Supplementary Table S3 ). In this process, a serial gradient dilution of plasmid DNA of these genes was used as a standard for data calibration. The conditions of qRT-PCR were set to 10 min, 95°C, for pre-degeneration; 15 s, 95°C, for degeneration; 30 s, 55°C–60°C, for annealing; 30 s, 72°C, for extending; and 20 s, 82°C, for signal detection with 40 cycles. Finally, the melt curve obtained through each test was used to verify and check the reliability and specificity of the corresponding qRT-PCR.
To explore the signal transduction for GnRH-induced target gene mRNA expression, the method mentioned above was performed.
(§2) Figure 10 Signal transduction for GnRH2- and GnRH3-induced POMCb, CART2, UTS1, NMBa, NMBb, and LEPR mRNA expression in grass carp pituitary cells. In this experiment, GnRH2 (A) or GnRH3 (B) combined with/without the PLC inhibitor U73122 (10 μM), PKC inhibitor GF109203X (20 μM), or IP3 receptor blocker 2-APB (100 μM) was used to incubate the grass carp pituitary cells for 24 (h) After drug treatment, the total RNA was extracted from the cells for real-time PCR of the respective genes. Data presented are expressed as mean ± SEM, and the different letters represent a significant difference at p < 0.05 between groups (ANOVA followed by a Dunnett test).
as §2, with “11” for “10”, “AC” for “PLC”, “MDL12330A (20 μM) or PKA” for “U73122 (10 μM), PKC”, “H89” for “GF109203X”, “(20” for “(20 μM), or IP3 receptor blocker 2-APB (100”
Figure 12 Signal transduction for GnRH2- and GnRH3-induced POMCb, CART2, UTS1, NMBa, NMBb, and LEPR mRNA expression in grass carp pituitary cells. […] Data presented are expressed as mean ± SEM, and the differences between groups were significant at p < 0.05 by labelling diverse letters (ANOVA followed by a Dunnett test).

[2] = system: grass carp pituitary; details: ref [15]; cited from earlier work
Source text: As we know, energy metabolism was associated with reproductive behavior in vertebrates ([11]), and adequate energy reserve was essential for breeding ([12]).

[3] = system: grass carp pituitary cells; test: Signal transduction: pathway inhibitors on GnRH-regulated reproductive gene mRNA; type: cell-based, grass carp (Ctenopharyngodon idellus); details: U73122 10 μM, GF109203X 20 μM, 2-APB 100 μM, MDL12330A 20 μM, H89 20 μM, nifedipine 10 μM, calmidazolium 1 μM, KN62 5 μM; for blockade of GnRH2-induced GtHα, LHβ, FSHβ, INHBa, and SgII mRNA expression: cotreated with GnRH2, 24 h; for blockade of GnRH3-induced GtHα, LHβ, FSHβ, INHBa, and SgII mRNA expression: cotreated with GnRH3, 24 h
Description: as §1
as §2, with “In” for “Figure 10 Signal transduction for GnRH2- and GnRH3-induced POMCb, CART2, UTS1, NMBa, NMBb, and LEPR mRNA expression in grass carp pituitary cells. In”
In this experiment, GnRH2 (A) or GnRH3 (B) combined with/without the AC inhibitor MDL12330A (20 μM) or PKA inhibitor H89 (20 μM) was used to incubate the grass carp pituitary cells for 24 (h) After drug treatment, the total RNA was extracted from the cells for real-time PCR of the respective genes. Data presented are expressed as mean ± SEM, and the different letters represent a significant difference at p < 0.05 between groups (ANOVA followed by a Dunnett test).
Data presented are expressed as mean ± SEM, and the different letters represent a significant difference at p < 0.05 between groups (ANOVA followed by a Dunnett test).

[4] = system: DRD2; details: teleost; ref [37]; cited from earlier work

Compound	blockade of GnRH2-induced POMCb, CART2, UTS1, NMBa, NMBb, and LEPR mRNA expression [1]	blockade of GnRH3-induced POMCb, CART2, UTS1, NMBa, NMBb, and LEPR mRNA expression [1]	effect on LH secretion and synthesis [2]	blockade of GnRH2-induced GtHα, LHβ, FSHβ, INHBa, and SgII mRNA expression [3]	blockade of GnRH3-induced GtHα, LHβ, FSHβ, INHBa, and SgII mRNA expression [3]	effect on LH synthesis via activation of DRD2 [4]
COC(=O)C1=C(C)NC(C)=C(C(=O)OC)C1c1ccccc1[N+](=O)[O-] [nifedipine]	could block	could block	–	–	–	–
prolactin-releasing peptide [PRRP]	–	–	significantly induce	–	–	–
CN(C)CCCn1cc(C2=C(c3c[nH]c4ccccc34)C(=O)NC2=O)c2ccccc21 [GF109203X]	could block	could block	–	could block	could block	–
O=S(=O)(NCCNC/C=C/c1ccc(Br)cc1)c1cccc2cnccc12 [H89]	could block	could block	–	could also be blocked	could also be blocked	–
Clc1ccc(C(c2ccc(Cl)cc2)n2cc[n+](CC(OCc3ccc(Cl)cc3Cl)c3ccc(Cl)cc3Cl)c2)cc1 (centres unmarked) [calmidazolium]	could block	could block	–	could also block	could also block	–
COc1ccc2c(c1)CC[C@@H]1[C@@H]2CC[C@]2(C)[C@@H](NCCCCCCN3C(=O)C=CC3=O)CC[C@@H]12 [U73122]	could block	could block	–	could block	could block	–
NCCc1ccc(O)c(O)c1 [dopamine]	–	–	–	–	–	inhibited
CN([C@@H](Cc1ccc(OS(=O)(=O)c2cccc3cnccc23)cc1)C(=O)N1CCN(c2ccccc2)CC1)S(=O)(=O)c1cccc2cnccc12 [KN62]	could block	could block	–	could also block	could also block	–
NCCOB(c1ccccc1)c1ccccc1 [2-APB]	could block	could block	–	could block	could block	–
Cl.c1ccc(C2CCCC2NC2=NCCCCCCCCCCC2)cc1 (centres unmarked) [MDL12330A]	could block	could block	–	could also be blocked	could also be blocked	–
